US9365583B2, “Substituted pyrazoles and uses thereof” (Genentech, Inc., priority 2013, dated 2016)
pKi: −log10 of the molar value.

Biological target: T1, N-terminally GST-tagged DLK (catalytic domain amino acid 1-520) (Homo sapiens, UniProt Q12852)
T1 construct: N-terminally GST-tagged DLK (catalytic domain amino acid 1-520); purchased Carna Bioscience
T1 sequence (Q12852 1-520): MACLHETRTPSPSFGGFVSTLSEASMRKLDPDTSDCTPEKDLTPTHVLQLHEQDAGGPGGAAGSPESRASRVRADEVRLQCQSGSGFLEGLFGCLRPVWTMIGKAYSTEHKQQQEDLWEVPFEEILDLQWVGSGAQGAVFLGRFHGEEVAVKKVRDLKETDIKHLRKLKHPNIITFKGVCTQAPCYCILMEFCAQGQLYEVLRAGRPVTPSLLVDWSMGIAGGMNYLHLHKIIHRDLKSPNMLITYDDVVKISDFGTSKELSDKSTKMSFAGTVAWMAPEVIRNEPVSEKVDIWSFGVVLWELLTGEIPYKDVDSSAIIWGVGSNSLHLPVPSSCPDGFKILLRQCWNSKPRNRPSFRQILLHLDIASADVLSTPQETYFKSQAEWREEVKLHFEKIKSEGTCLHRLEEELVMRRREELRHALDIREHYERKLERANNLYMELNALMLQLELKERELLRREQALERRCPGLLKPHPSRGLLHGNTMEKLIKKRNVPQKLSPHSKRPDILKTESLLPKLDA
Experiment: DLK TR-FRET inhibition assay
Type: biochemical
Conditions: 5 nM GST-DLK, 40 nM HIS-MKK4 K131M substrate, 30 μM ATP, 60 minutes at ambient temperature
Method in brief: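 5 nM GST-DLK (aa 1-520), 40 nM HIS-MKK4 K131M and 30 μM ATP reacted 60 min at ambient temperature in HEPES pH 7.5 buffer with 10 mM MgCl2, compound 1:3 serially diluted from 20 uM. TR-FRET detection of phospho-MKK4 used Eu-cryptate anti-phospho-MKK4 plus D2 anti-HIS, read after 3 h (665/615 nm).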

Row | pKi | Compound
1 | 8.82 | CO[C@H]1CCN([C@@H]2C[C@@H]3[C@H](C2)[C@H]3c2cc(-c3cnc(N)c(OC(F)(F)F)c3)nn2C(C)C)C1 [compound 214, 5-(1-isopropyl-5-((1R,3s,5S,6S)-3-((S)-3-methoxypyrrolidm-1-yl)bicyclo[3.1.0]hexan-6-yl)-1H-pyrazol-3-yl)-3-(trifluoromethoxy) pyridin-2-amine]
2 | 8.85 | CO[C@H]1CCN([C@@H]2C[C@@H]3[C@H](C2)[C@H]3c2cc(-c3cnc(N)c(OC(F)F)c3)nn2C(C)C)C1 [compound 215, 3-(difluoromethoxy)-5-(1-isopropyl-5-((1R,3s,5S,6S)-3-((S)-3-methoxypyrrolidin-1-yl)bicyclo [3.1.0]hexan-6-yl)-1H-pyrazol-3-yl)pyridin-2-amine]
3 | 8.18 | CC(C)n1nc(-c2cnc(N)c(OC(F)F)c2)cc1[C@H]1[C@@H]2CC(F)(F)C[C@@H]21 [compound 216, 5-(5-((1R,5S,6r)-3,3-difluorobicyclo [3.1.0]hexan-6-yl)-1-isopropyl-1H-pyrazol-3-yl)-3-(difluoro-methoxy)pyridin-2-amine]
4 | 8.38 | CC(C)n1nc(-c2cnc(N)c(OC(F)F)c2)cc1[C@H]1[C@@H]2C[C@@H](F)C[C@@H]21 [compound 217, 3-(difluoromethoxy)-5-(5-((1R,3s,5S,6r)-3-fluorobicyclo[3.1.0]hexan-6-yl)-1-isopropyl-1H-pyrazol-3-yl)pyridin-2-amine]
5 | 8.66 | CC(C)n1nc(-c2cnc(N)c(OC(F)(F)F)c2)cc1[C@H]1[C@@H]2C[C@@H](N3CC4(CN(C)CCO4)C3)C[C@@H]21 [compound 219, 5-(1-isopropyl-5-((1R,3s,5S,6r)-3-(8-methyl-5-oxa-2,8-diazaspiro [3.5]nonan-2-yl)bicyclo[3.1.0]hexan-6-yl)-1H-pyrazol-3-yl)-3-(trifluoromethoxy)pyridin-2-amine]
6 | 8.68 | CC(C)n1nc(-c2cnc(N)c(OC(F)(F)F)c2)cc1[C@H]1[C@@H]2C[C@H](N3CC4(CN(C)CCO4)C3)C[C@@H]21 [compound 220, 5-(1-isopropyl-5-((1R,3r,5S,6r)-3-(8-methyl-5-oxa-2,8-diazaspiro [3.5]nonan-2-yl)bicyclo[3.1.0]hexan-6-yl)-1H-pyrazol-3-yl)-3-(trifluoromethoxy)pyridin-2-amine]
7 | 8.70 | CC(C)n1nc(-c2cnc(N)c(OC(F)(F)F)c2)cc1[C@H]1[C@@H]2C[C@@H](N3CC4(CCCO4)C3)C[C@@H]21 [compound 221, 5-(5-((1R,3s,5S,6r)-3-(5-oxa-2-azaspiro[3.4]octan-2-yl)bicyclo [3.1.0]hexan-6-yl)-1-isopropyl-1H-pyrazol-3-yl)-3-(trifluoromethoxy) pyridin-2-amine]
8 | 8.57 | CC(C)n1nc(-c2cnc(N)c(C(F)(F)F)c2)cc1[C@H]1[C@@H]2C[C@@H](N3CC4(CCCO4)C3)C[C@@H]21 [compound 222, 5-(5-((1R,3s,5S,6r)-3-(5-oxa-2-azaspiro[3.4]octan-2-yl)bicyclo [3.1.0]hexan-6-yl)-1-isopropyl-1H-pyrazol-3-yl)-3-(trifluoromethyl) pyridin-2-amine]
9 | 8.59 | CC(C)n1nc(-c2cnc(N)c(OC(F)F)c2)cc1[C@H]1[C@@H]2C[C@@H](N3CC4(CCCO4)C3)C[C@@H]21 [compound 223, 5-(5-((1R,3s,5S,6r)-3-(5-oxa-2-azaspiro[3.4]octan-2-yl)bicyclo [3.1.0]hexan-6-yl)-1-isopropyl-1H-pyrazol-3-yl)-3-(difluoro-methoxy)pyridin-2-amine]
10 | 8.42 | CC(C)n1nc(-c2cnc(N)c(OC(F)F)c2)cc1[C@H]1[C@@H]2C[C@@H](N3CC4(CN(C)CCO4)C3)C[C@@H]21 [compound 224, 3-(difluoromethoxy)-5-(1-isopropyl-5-((1R,3s,5S,6r)-3-(8-methyl-5-oxa-2,8-diazaspiro[3.5]nonan-2-yl)bicyclo[3.1.0]hexan-6-yl)-1H-pyrazol-3-yl)pyridin-2-amine]
11 | 8.38 | CC(C)n1nc(-c2cnc(N)c(OC(F)F)c2)cc1[C@H]1[C@@H]2C[C@H](N3CC4(CCCO4)C3)C[C@@H]21 [compound 225, 5-(5-((1R,3r,5S,6r)-3-(5-oxa-2-azaspiro[3.4]octan-2-yl)bicyclo [3.1.0]hexan-6-yl)-1-isopropyl-1H-pyrazol-3-yl)-3-(difluoro-methoxy)pyridin-2-amine]
12 | 8.49 | CC(C)n1nc(-c2cnc(N)c(OC(F)(F)F)c2)cc1[C@H]1[C@@H]2C[C@H](N3CC4(CCCO4)C3)C[C@@H]21 [compound 226, 5-(5-((1R,3r,5S,6r)-3-(5-oxa-2-azaspiro[3.4]octan-2-yl)bicyclo [3.1.0]hexan-6-yl)-1-isopropyl-1H-pyrazol-3-yl)-3-(trifluoro-methoxy)pyridin-2-amine]
13 | 8.35 | CC(C)n1nc(-c2cnc(N)c(C(F)(F)F)c2)cc1[C@H]1[C@@H]2C[C@H](N3CC4(CCCO4)C3)C[C@@H]21 [compound 227, 5-(5-((1R,3r,5S,6r)-3-(5-oxa-2-azaspiro[3.4]octan-2-yl)bicyclo [3.1.0]hexan-6-yl)-1-isopropyl-1H-pyrazol-3-yl)-3-(trifluoro-methyl)pyridin-2-amine]
14 | 8.55 | CC(C)n1nc(-c2cnc(N)c(OC(F)F)c2)cc1[C@H]1[C@@H]2C[C@H](N3CC4(CN(C)CCO4)C3)C[C@@H]21 [compound 228, 3-(difluoromethoxy)-5-(1-isopropyl-5-((1R,3r,5S,6r)-3-(8-methyl-5-oxa-2,8-diazaspiro[3.5]nonan-2-yl)bicyclo[3.1.0]hexan-6-yl)-1H-pyrazol-3-yl)pyridin-2-amine]
15 | 8.41 | CC(C)n1nc(-c2cnc(N)c(C(F)(F)F)c2)cc1[C@H]1[C@@H]2CC3(C[C@@H]21)CN(C)C(=O)CO3 (stereo partly drawn) [compound 229, (1R,5S,6r)-6-(3-(6-amino-5-(tri-fluoromethyl)pyridin-3-yl)-1-isopropyl-1H-pyrazol-5-yl)-4′-methylspiro[bicyclo[3.1.0]hexane-3,2′-morpholin]-5′-one]
16 | 8.47 | CC(C)n1nc(-c2cnc(N)c(OC(F)F)c2)cc1[C@H]1[C@@H]2C[C@H](OC3COC3)C[C@@H]21 [compound 230, 3-(difluoromethoxy)-5-(1-iso-oprpyl-5-((1R,3r,5S,6r)-3-(oxetan-3-yloxy)bicyclo[3.1.0]hexan-6-yl)-1H-pyrazol-3-yl)pyridin-2-amine]
17 | 8.26 | CC(C)n1nc(-c2cnc(N)c(OC(F)F)c2)cc1[C@H]1[C@@H]2C[C@@H](OC3COC3)C[C@@H]21 [compound 231, 3-(difluoromethoxy)-5-(1-iso-propyl-5-((1R,3s,5S,6r)-3-(oxetan-3-yloxy)bicyclo[3.1.0]hexan-6-yl)-1H-pyrazol-3-yl)pyridin-2-amine]
18 | 8.96 | Nc1ncc(-c2cc([C@H]3[C@@H]4C[C@@H](N5CCCOCC5)C[C@@H]43)n(CC(F)F)n2)cc1OC(F)F [compound 232, 5-(5-((1R,3s,5S,6r)-3-(1,4-oxazepan-4-yl)bicyclo[3.1.0]hexan-6-yl)-1-(2,2-difluoroethyl)-1H-pyrazol-3-yl)-3-(difluoromethoxy) pyridin-2-amine]
19 | 8.74 | Nc1ncc(-c2cc([C@H]3[C@@H]4C[C@H](N5CCCOCC5)C[C@@H]43)n(CC(F)F)n2)cc1OC(F)F [compound 233, 5-(5-((1R,3r,5S,6r)-3-(1,4-oxazepan-4-yl)bicyclo[3.1.0]hexan-6-yl)-1-(2,2-difluoroethyl)-1H-pyrazol-3-yl)-3-(difluoromethoxy) pyridin-2-amine]
20 | 8.31 | CC(C)n1nc(-c2cnc(N)c(C(F)(F)F)c2)cc1[C@H]1[C@@H]2C[C@H](N3CCN[C@@H](C)C3)C[C@@H]21 [compound 234, 5-(1-isopropyl-5-((1R,3r,5S,6S)-3-((S)-3-methylpiperazin-1-yl)bicyclo[3.1.0]hexan-6-yl)-1H-pyrazol-3-yl)-3-(trifluoromethyl) pyridin-2-amine]
21 | 8.42 | CC(C)n1nc(-c2cnc(N)c(C(F)(F)F)c2)cc1[C@H]1[C@@H]2C[C@@H](N3CCN[C@@H](C)C3)C[C@@H]21 [compound 235, 5-(1-isopropyl-5-((1R,3s,5S,6S)-3-((S)-3-methylpiperazin-1-yl)bicyclo[3.1.0]hexan-6-yl)-1H-pyrazol-3-yl)-3-(trifluoromethyl) pyridin-2-amine]
22 | 7.80 | CC(C)n1nc(-c2cnc(N)c(OC(F)F)c2)cc1[C@H]1[C@@H]2C[C@@H](Cl)C[C@@H]21 [compound 236, 5-(5-((1R,3s,5S,6r)-3-chlorobicyclo [3.1.0]hexan-6-yl)-1-isopropyl-1H-pyrazol-3-yl)-3-(difluoro-methoxy)pyridin-2-amine]
23 | 8.96 | CC(C)n1nc(-c2cnc(N)c(OC(F)(F)F)c2)cc1[C@H]1[C@@H]2C[C@@H](N3CCN(C)C[C@@H]3C)C[C@@H]21 [compound 237, 5-(5-((1R,3s,5S,6S)-3-((S)-2,4-dimethylpiperazin-1-yl)bicyclo [3.1.0]hexan-6-yl)-1-isopropyl-1H-pyrazol-3-yl)-3-(trifluoro-methoxy)pyridin-2-amine]
